Reference: patent US20150056205A1, “STEROID SPARING AGENTS AND METHODS OF USING SAME” (BIOGEN IDEC MA INC., priority 2004, published 2015)

Tests used:
[1] = system: mice, guinea pigs, and monkeys; conditions: in vivo
Description: Single- and multiple-dose toxicity studies have been performed in mice, guinea pigs, and monkeys. All toxicology studies were carried out using natalizumab and included an acute study in guinea pigs, subacute studies in mouse and cynomolgus monkeys, and mutagenicity and tissue cross-reactivity studies.

[2] = system: subjects with active ulcerative colitis; experiment: open-label single infusion study in active ulcerative colitis; format: in vivo; conditions: for mean PTAI score: 9.7 at Week 0
Description: Another earlier study was an open-label safety, tolerability, and efficacy study of a single infusion of 3 mg/kg intravenous natalizumab in male and female subjects with active ulcerative colitis.

guinea pig EAE = experiment: guinea pig Experimental Allergic Encephalitis (EAE) model; format: in vivo
Description: The initial dose of natalizumab selected for clinical evaluation was based on non-clinical studies in the guinea pig Experimental Allergic Encephalitis (EAE) model. […] A single dose of 3 mg/kg appeared to provide serum concentrations of natalizumab associated with α4 integrin receptor blockade for up to approximately 3 weeks, and 6 mg/kg for about 6 weeks.

[3] = system: adult subjects with Crohn's disease (CD); experiment: maintenance of clinical response and remission in Crohn's Disease, six month regimen (Example 10); format: in vivo, human
Description: This experiment was a double-blind, placebo-controlled study of the efficacy, safety, and tolerability of natalizumab in maintaining clinical response and remission in Crohn's Disease.
Natalizumab, a humanized monoclonal IgG4 antibody to α4 integrin, was evaluated in a randomized, controlled study to determine the ability of a six month regimen to maintain clinical response/remission achieved in natalizumab-treated subjects in the […] induction of response/remission study.
Loss of response was defined as a CDAI≧220 and ≧70-point increase from baseline CDAI in the second study or use of rescue intervention. Maintenance of remission was also assessed.

[4] = system: subjects diagnosed with chronic active Crohn's disease; experiment: placebo-controlled single infusion study in chronic active Crohn's disease; format: in vivo
Description: Earlier studies in Crohn's disease and ulcerative colitis are summarized below. One study was a randomized, double-blind, placebo-controlled, safety, tolerability, and efficacy study of a single infusion of intravenous 3 mg/kg natalizumab in male and female subjects diagnosed with chronic active Crohn's disease. Thirty subjects were enrolled; 18 were treated with natalizumab (3 mg/kg) and 12 with placebo.

primates = conditions: in vivo
Description: The inflammation was characterized by increased numbers of lymphocytes and plasma cells within the lamina propia with occasional crypt abscesses.

[5] = system: subjects with Crohn's disease; experiment: Phase III maintenance of response and remission study in Crohn's disease (Example 9, second study); format: in vivo, human
Description: A double-blind, placebo-controlled study of the efficacy, safety, and tolerability of intravenous Tysabri (natalizumab, 300 mg monthly) in maintaining clinical response and remission in patients with Crohn's Disease (CD) was performed. The objectives were to compare the ability of natalizumab versus placebo to maintain a clinical response in subjects with CD, to compare the ability of natalizumab versus placebo to maintain a clinical remission in subjects with CD, to compare the effects of natalizumab versus placebo on quality of life as measured by the Inflammatory Bowel Disease Questionnaire (IBDQ), and to compare the ability of natalizumab versus placebo to allow subjects to achieve withdrawal of oral steroids.
A Phase III, international, multicenter, randomized, double-blind, placebo-controlled, parallel-group study of subjects with previously active Crohn's disease (CD) (defined as moderately to severely active, CDAI≧220, <450) who have responded to treatment at Week 10 and maintained that response out to Week 12 in a first study (defined as a ≧70 point decrease in baseline CDAI) and whose disease is mildly active (defined as a CDAI score of <220) was undertaken.
Within this group there was a sub-population who had achieved remission (defined as a CDAI score of <150) at Week 10 of the first study. […] Subjects receiving concomitant medications for their CD were permitted to enroll providing that doses remained stable throughout their participation in the first study. All concomitant medications for CD remained stable for the duration of the 12-month treatment phase (up to Month 15) with the exception of oral steroids which were reduced according to a fixed algorithm). At the time this application was filed, only 9 months of data was available.
Natalizumab was administered 300 mg monthly for 12 infusions. The placebo was administered monthly for 12 infusions. Subjects were stratified according to their disease status (remission versus no remission, i.e., a CDAI<150 or ≧150), concomitant use of oral steroids and concomitant use of immunosuppressants.
Once randomized, subjects received their first infusion. Thereafter, they returned to the clinic on a monthly basis (where 1 month is defined as a 4-week period) for assessment and infusion. Introduction of any new medication for CD or a dose change to an existing concomitant medication for CD (with the exception of oral steroids withdrawn according to the fixed algorithm) […] unless deemed necessary for purposes of rescue intervention. Once rescued, such a subject was considered a treatment failure.
Eligible subjects at Week 10 in the first study were consented and enrolled into the second study, in order to allow subjects taking concomitant oral steroids to begin a steroid taper. Subjects who continued to meet the eligibility criteria at Week 12/Month 3, i.e., in time for their next, monthly infusion, were re-randomized and entered the treatment phase which will last up to 12 months in duration (i.e., up to Month 15). Subjects were male or female, eighteen years of age or older.
All subjects receiving oral steroids were required to undergo a taper immediately upon entry into the second study using the following algorithm. Subjects on doses equivalent to >10 mg of prednisolone will begin their taper at a rate of 5 mg every 7 days until they reach a dose of 10 mg. Subjects on doses equivalent to 10 mg of prednisolone were tapered at a rate of 2.5 mg every 7 days until they are completely withdrawn. Subjects taking budesonide were tapered at a rate of 3 mg every 3 weeks.
The ability of natalizumab to maintain mildly active disease (defined as a CDAI score of <220 and no use of rescue intervention) and remission (defined as a CDAI score of <150 and no use of rescue intervention) in subjects with CD was assessed. […]

natalizumab
clinical or postmortem evidence of toxicity [1]: did not demonstrate clinical or postmortem evidence of significant toxicity
mean PTAI score ([2]; 1 week post-treatment): 6.9
subjects with good clinical response (PTAI score ≦5) ([2]; 2 and 4 weeks after single 3 mg/kg infusion, ten subjects): 50%
mean PTAI score ([2]; 2 weeks post-treatment): 5.7
mean PTAI score ([2]; 4 weeks post-treatment): 4.9
subjects who received no rescue medication ([2]; between Weeks 0 and 4): Seventy percent
adverse events considered related to study drug ([2]; of the 30 adverse events reported): 3
subjects reporting a serious adverse event ([2]; ten subjects, single 3 mg/kg): Three
signs and symptoms of EAE (guinea pig EAE; dose of 3 mg/kg): significant delay in onset and a reversal of the signs and symptoms of EAE
signs and symptoms of EAE (guinea pig EAE; lower doses than 3 mg/kg): not effective
subjects taking steroids in the first study who were withdrawn from steroids ([3]; 300 mg monthly, placebo 25%): 55%
subjects who maintained clinical remission ([3]; at 6 months, 300 mg monthly, placebo 26%): 44%
subjects continuing to meet the criteria for clinical response ([3]; at 6 months, ITT population, 300 mg monthly, placebo 29%): 61%
tolerability ([3]; monthly administration for 6 months): well tolerated
rates of serious and non-serious adverse events between treatment groups ([3]; versus placebo): No notable difference
mean CDAI scores compared to mean baseline ([4]; 2 and 4 weeks post-treatment, single 3 mg/kg): significantly decreased
subjects requiring rescue therapy ([4]; Week 2 post-treatment, single 3 mg/kg, placebo 33%): 11%
subjects withdrawn because of an adverse event ([4]; single 3 mg/kg): No subjects
subjects reporting one serious adverse event ([4]; single 3 mg/kg, 18 treated): Six
safety and tolerability ([4]; single intravenous dose of 3 mg/kg, subjects with CD): safe and well tolerated
subjects in clinical remission (CDAI<150) ([4]; two weeks after single 3 mg/kg intravenous infusion, placebo 8%): 39%
treated animals with minimal to mild lymphoplasmacytic inflammation of the mucosa of the cecum, colon, and/or rectum (primates): about half
patients of the remission population who maintained a response (remission) ([5]; after 9 months, natalizumab remission population at three months, placebo 25.8%): 43.8%
patients who maintained a response ([5]; after 9 months, natalizumab responder population at three months, placebo 28.8%): 61.3%
Remission and not taking steroids, number (%) of subjects ([5]; month 9, of those who took steroids at first study baseline, 300 mg monthly, placebo 17 (22%)): 31 (46%)
Not taking steroids, number (%) of subjects ([5]; month 9, of those who took steroids at first study baseline, 300 mg monthly, placebo 19 (25%)): 37 (55%)
serious adverse events (SAEs) ([5]; placebo 8%): 7%
tapering off steroids ([5]; second study): enabled subjects to be successfully tapered off steroids
